Test results taken from patent publication US5605905A, “Antitumoral compounds” (Universidad Complutense de Madrid, priority 1992, dated 1997).
Values after ≈ are worked out from the molar mass of the structure shown.

Columns and labels:
[1] = system: P-388 cells; assay: Assay against P-388 cells (lymphoid neoplasm from DBA/2 mouse), cell count after three days; assay type: cell-based; conditions: P388, 72 h, 1×10^4 cells per well, three days of incubation, triplicate
Protocol: Compounds were diluted in DMSO/MeOH/Acetone (1:4.5:4.5) and they were tested at different concentrations. The solvent was allowed to evaporate before the cells were seeded.
The following antitumoral assay, employing the current screening protocol has been carried out using the following cell line:
P-388 (lymphoid neoplasm from DBA/2 mouse).
Assay Against P-388 Cells (Lymphoidneoplasm from DBA/2 Mouse )
P-388 cells were seeded into 16 mm wells at 1×10^4 cells per well in 1 ml aliquots of MEM 10C containing different concentrations of the compound. All determinations were carried out in triplicate. A separate set of cultures without drug was counted daily to ensure that the cells remained in exponential growth over the period of observation. After three days of incubation, cells were counted and the IC50 was determined.

[2] = system: Gram positive bacteria; conditions: background, literature; cited from earlier work
[3] = background statement, no test described; cited from earlier work
[4] = system: thymidylate synthetase; conditions: background, literature; cited from earlier work

Row | SMILES | IC50 [1] | also measured
1 | CCC1C(C)=CNC2=C1C(=O)c1c(C)cc(=O)[nH]c1C2=O (centres unmarked) [Compound 1, 4,6-dimethyl-5-5,8-dihydro-1H-1,8-diazaanthracene-2,9,10-trione] | 1 µg/mL (≈ 3.52 µM) | –
2 | Cc1cc(=O)[nH]c2c1C(=O)C1=C(NC=CC1c1ccccc1)C2=O (centres unmarked) [Compound 2, 4-methyl-5-phenyl-5,8-dihydro-1H-1,8-diazaanthracene-2,9,10-trione] | 0.25 µg/mL (≈ 0.785 µM) | –
3 | Cc1cc(=O)[nH]c2c1C(=O)C1=C(NC=CC1c1ccc(N(C)C)cc1)C2=O (centres unmarked) [Compound 3, 5-(4-Dimethylamino-phenyl) 4-methyl-5,8-dihydro-1H-1,8-diazaanthracene-2,9,10-trione] | 20 µg/mL (≈ 55.3 µM) | –
4 | Cc1ccnc2c1C(=O)c1c(C)cc(=O)[nH]c1C2=O [Compound 4, 4,5-dimethyl-1H-1,8-diazaanthracene-2,9,10-trione] | 1 µg/mL (≈ 3.93 µM) | –
5 | CCc1cnc2c(c1)C(=O)c1c(C)cc(=O)[nH]c1C2=O [Compound 5, 6-ethy-4-methyl-1H-1,8-diazaanthracene-2,9,10-trione] | 0.5 µg/mL (≈ 1.86 µM) | –
6 | Cc1cc(=O)[nH]c2c1C(=O)c1c(-c3ccc(N(C)C)cc3)ccnc1C2=O [Compound 6, 5-(p-dimethylaminophenyl)-4-methyl-1H-1,8-diazaanthracene-2,9,10-trione] | 1 µg/mL (≈ 2.78 µM) | –
7 | CCc1cc2c([nH]c1=O)C(=O)c1ncc(C)cc1C2=O [Compound 7, 3-ethyl-6-methyl-1H-1,8-diazaanthracene-2,9,10-trione] | 0.2 µg/mL (≈ 0.746 µM) | –
8 | Cc1cc2c([nH]c1=O)C(=O)c1ccccc1C2=O [Compound 8, 3-Methyl-1H-1azaanthracene-2,9,10-trione] | 0.2 µg/mL (≈ 0.836 µM) | –
9 | CCCc1c2c([nH]c(=O)c1C)C(=O)c1[nH]c(=O)c(C)c(CCC)c1C2=O [Diazaquinomicyn A] | – | activity against Gram positive bacteria [2]: good activity; antitumoral activity [3]: inactive; capacity to inhibit the thymidylate synthetase [4]: capacity to inhibit
